Results taken from PMC10397291, “Molecular pathway and structural mechanism of human oncochannel TRPV6 inhibition by the phytocannabinoid tetrahydrocannabivarin” (Nature Communications, 2023).
“Also recorded” adds a separate entry of the source. Each block holds one compound with its values, some of them ahead of it.

Tests used:
[1] = biological target: full-length human TRPV6 L490W mutant with C-terminal streptavidin affinity tag and eGFP (FSEC construct) (human); assay: SEC; fluorescence-detection SEC (FSEC) of eGFP-tagged channels; HEK cells solubilised in 1% DDM, 0.1% CHS, supernatant on Superose 6 10/300 GL in 1 mM DDM, 20 mM Tris-HCl pH 8.0, 150 mM NaCl, 1 mM βME
L490W mutant hTRPV6 = biological target: T1, L490W mutant hTRPV6 (Homo sapiens, UniProt Q9H1D0, L530W); assay: Fura-2 AM Ca2+ uptake, L490W mutant hTRPV6; format: cell-based; settings: L490W
T1 construct: Full-length wild-type or mutant human TRPV6 was expressed in HEK 293S cells as described above; expressed in transfected cells; host or cells: HEK 293S GnTI- (baculovirus/BacMam transduction)
T1 sequence (Q9H1D0 41-765 L530W limits assumed): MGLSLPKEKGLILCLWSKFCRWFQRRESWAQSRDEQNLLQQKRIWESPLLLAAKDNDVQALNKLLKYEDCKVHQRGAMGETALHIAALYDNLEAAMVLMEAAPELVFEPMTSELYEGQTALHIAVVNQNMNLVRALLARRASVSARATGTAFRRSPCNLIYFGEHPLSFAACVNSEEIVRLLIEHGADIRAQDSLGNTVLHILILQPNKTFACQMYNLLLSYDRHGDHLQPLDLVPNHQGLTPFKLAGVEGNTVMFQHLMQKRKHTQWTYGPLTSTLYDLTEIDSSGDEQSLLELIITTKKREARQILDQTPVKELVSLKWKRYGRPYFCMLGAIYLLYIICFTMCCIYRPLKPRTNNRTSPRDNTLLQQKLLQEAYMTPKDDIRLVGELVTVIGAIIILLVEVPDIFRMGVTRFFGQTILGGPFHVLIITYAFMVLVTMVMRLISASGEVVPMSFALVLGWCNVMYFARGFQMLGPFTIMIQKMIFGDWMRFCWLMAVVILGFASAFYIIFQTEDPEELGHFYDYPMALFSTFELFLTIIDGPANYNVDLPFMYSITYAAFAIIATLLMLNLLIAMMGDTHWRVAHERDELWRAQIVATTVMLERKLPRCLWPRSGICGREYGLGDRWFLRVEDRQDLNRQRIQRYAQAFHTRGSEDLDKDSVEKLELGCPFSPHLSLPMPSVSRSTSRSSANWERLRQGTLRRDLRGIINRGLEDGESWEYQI

TRPV6 [2] = system: TRPV6; set-up: method as in doi:10.1038/nature17975; settings: ref doi:10.1038/nature17975; cited from earlier work
[3] = biological target: C-terminally truncated human TRPV6 (hTRPV6-CtD, residues 1–666 of wild-type channel) (human); assay: cryo-EM structure; hTRPV6-CtD in cNW30 nanodiscs with soybean lipids, 114 µM THCV; 150 mM NaCl, 20 mM Tris-HCl pH 8.0, 1 mM βME; C4 symmetry, 2.79 Å
TRPV6 [4] = settings: at the tested doses; cited from earlier work
TRPV5 = system: TRPV5; set-up: method as in PMID 30170189; settings: at the tested doses; cited from earlier work
[5] = biological target: full-length wild-type human TRPV6 with C-terminal streptavidin affinity tag and eGFP (FSEC construct) (human); assay: SEC; fluorescence-detection SEC (FSEC) of eGFP-tagged channels; HEK cells solubilised in 1% DDM, 0.1% CHS, supernatant on Superose 6 10/300 GL in 1 mM DDM, 20 mM Tris-HCl pH 8.0, 150 mM NaCl, 1 mM βME

Compound: full-length human TRPV6 L490W mutant with C-terminal streptavidin affinity tag and eGFP (FSEC construct) (natural protein)
- stoichiometry N [1]: 4

Compound: [Gd+3] [Gd3+]
- block of Ca2+ uptake (L490W mutant hTRPV6; 100 µM Gd3+): complete block
- inhibition of calcium uptake (L490W mutant hTRPV6; 100 mM Gd3+ as printed, n = 3): complete inhibition
- block of the calcium uptake signal (TRPV6 [2]): full block of the signal

Compound: C=C(C)[C@@H]1CCC(C)=C[C@H]1c1c(O)cc(CCCCC)cc1O [CBD, cannabidiol]
- antagonist effect on TRPV6 (TRPV6 [4]): Lack of CBD effect; also recorded: do not modulate; also recorded: ineffective
- antagonist effect on TRPV5 (TRPV5): ineffective

Second part, the compound after the results:

- stoichiometry N [3]: 4
Compound: C-terminally truncated human TRPV6 (hTRPV6-CtD, residues 1–666 of wild-type channel) (domain or fragment)

- stoichiometry N [5]: 4
Compound: full-length wild-type human TRPV6 with C-terminal streptavidin affinity tag and eGFP (FSEC construct) (natural protein)
